Legend:
[1] = molecular target: mGRFT (Griffithsia sp., UniProt P84801, INS16GS); experiment: Isothermal titration calorimetry (ITC) binding to mGRFT; details: two-site model
[2] = molecular target: monomeric Griffithsin (mGRFT) (Griffithsia sp., UniProt P84801, INS16GS); experiment: Biolayer interferometry (BLI) binding to mGRFT; details: for Kd: mGRFT as the analyte, 25 °C
Experimental: (§1) All BLI experiments were performed at 25 °C on an Octet R2 instrument using SA or NiNTA biosensors. Ligand was loaded onto the biosensors followed by a baseline then association and dissociation phase. Biosensors were regenerated and this process was repeated for varying concentrations of analyte. Data was processed in Octet analysis studio 13.0. The samples were double referenced, first to a reference sensor then to a well containing no analyte. The trace responses were aligned to the average of the final 5s of the baseline and inter-step corrected to the dissociation step. A Savitzky-Golay filter was applied to reduce high frequency noise. The association and dissociation phases were fit globally to a 1:1 single exponential binding model. All conditions were run in triplicate.

[3] = system: mGRFT binding to biotinylated Man-9; experiment: BLI competition assay against immobilized Man-9; design: species or system Griffithsia; details: Man-9 immobilized
Experimental: To further probe this ultra-high-affinity interaction, we performed a BLI competition assay to determine whether the [2DEG]^2+ complex could outcompete mGRFT’s natural ligand, Man-9. Biotinylated Man-9 was immobilized on the BLI biosensor tip, which was then dipped into solutions containing mGRFT that was pre-incubated with varying concentrations of [2DEG]^2+. […] More broadly, this finding highlights the power of rational synthetic design to generate glycomimetics capable of outperforming their biological counterparts.
as §1

[4] = molecular target: GRFT; design: method as in PMID 17340634; details: free mannose; cited from earlier work

Sequence of monomeric Griffithsin (mGRFT) (P84801 whole entry, stated change not applied): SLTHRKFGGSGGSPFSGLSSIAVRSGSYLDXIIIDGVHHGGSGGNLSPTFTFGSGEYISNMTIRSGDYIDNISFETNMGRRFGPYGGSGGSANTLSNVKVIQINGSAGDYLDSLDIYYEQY
Sequence of mGRFT (P84801 whole entry, stated change not applied): as above

OC[C@H]1O[C@H](OCCOCCOc2ccc(/C=N/CCN(CC/N=C/c3ccc(OCCOCCO[C@H]4O[C@H](CO)[C@@H](O)[C@H](O)[C@@H]4O)cn3)CC/N=C/c3ccc(OCCOCCO[C@H]4O[C@H](CO)[C@@H](O)[C@H](O)[C@@H]4O)cn3)nc2)[C@@H](O)[C@@H](O)[C@@H]1O.[Fe+2] [[1DEG]^2+, [Fe(DEGman)3][SO4]]
stoichiometry of each interaction [1]: one

OC[C@H]1O[C@H](O[C@@H]2[C@@H](OCCOCCOc3ccc(/C=N/CCN(CC/N=C/c4ccc(OCCOCCO[C@H]5O[C@H](CO)[C@@H](O)[C@H](O)[C@@H]5O[C@H]5O[C@H](CO)[C@@H](O)[C@H](O)[C@@H]5O)cn4)CC/N=C/c4ccc(OCCOCCO[C@H]5O[C@H](CO)[C@@H](O)[C@H](O)[C@@H]5O[C@H]5O[C@H](CO)[C@@H](O)[C@H](O)[C@@H]5O)cn4)nc3)O[C@H](CO)[C@@H](O)[C@@H]2O)[C@@H](O)[C@@H](O)[C@@H]1O.[Fe+2] [[2DEG]^2+]
dissociation rate kd ([2]; 1:1 binding model): no measurable dissociation | reduction of BLI response in the association phase ([3]; 0.5 molar equivalents of complex pre-incubated with mGRFT): approximately 50% | reduction of BLI response in the association phase ([3]; two molar equivalents of complex pre-incubated with mGRFT): nearly eliminating the response entirely

OC[C@H]1OC(O)[C@@H](O)[C@@H](O)[C@@H]1O (stereo partly shown) [free mannose, mannose]
Kd [4]: 102 µM

Man-5
Kd ([2]; biotinylated Man-5 as the ligand, kinetic fitting and steady state analysis): 40 ± 10 µM

Man-9
Kd ([2]; biotinylated Man-9 as the ligand): 0.067 ± 0.001 µM

— doi:10.64898/2025.12.17.694979, “Tunable multivalent Fe(II)-based glycoassemblies as mimetics for native high-mannose glycans” (bioRxiv, 2025)
